pIC50: −log10 of the molar value. In brackets after ≈: the same amount, converted by molar mass. Like-named read-outs stand apart in the source and are kept apart here.
How the values were obtained:
T. b. brucei = assay: Anti-trypanosomal Alamar blue 96-well microplate assay; type: cell-based, Trypanosoma brucei brucei S427 (blood stream form); conditions: for MIC: read-out: MIC (minimum inhibitory concentration necessary to achieve 90% growth inhibition); for anti-trypanosomal activity (in words): screening of extract/fractions at 20, 10 and 5 μg/mL, pure compounds by MIC
Experimental: Each fraction was screened at different concentrations of 20, 10 and 5 μg/mL. The assay was performed in duplicate for each sample.
MIC assays were performed for samples having greater than 90% inhibition at a concentration of 20 μM in the initial screening campaign. The MIC values of the isolated compounds against T. b. brucei were determined by averaging the results of two independent assays. The concentrations were averaged and converted to μM.
The activity of the pure compounds was tested in vitro against the blood stream form of Trypanosomal brucei brucei (T. b. brucei) S427. The activity of the samples was determined using the well-established Alamar blue™ 96-well microplate assay, in which the screening procedure was modified from the microplate Alamar blue assay, to determine the drug sensitivity of African trypanosomes. The samples were initially screened at one concentration (20 μg/mL crude extracts or fractions, 20 μM for pure compounds) to determine their in vitro activity. Stock solutions of tested samples in DMSO (Acros Organics BVBA, Janssen Pharmaceutical, Geel, Belgium) were prepared at concentrations of 10 mg/mL (extracts) or 10 mM for pure compounds. The concentration of DMSO should not exceed 0.5% of the final test solution.

PNT2A cells = assay: Cytotoxicity Alamar Blue assay on normal prostatic epithelial cells; type: cell-based, human; conditions: 100 μg/mL, % of DMSO control values, n = 3
Experimental: Meanwhile, the initial screening for cytotoxicity activity of the isolated compounds was performed on human normal prostatic epithelial cells (PNT2A) at 100 μg/mL. […] In the initial screening, if the cell viability is less than 60%, a concentration response test at 0.3 to 300 μg/mL was carried on.
The pure compounds from mangrove plant, A. lanata were tested for cytotoxicity in vitro against human normal prostatic epithelial cell line (PNT2A) derived from ECACC (Sigma-Aldrich, Dorset, UK).
The cytotoxicity activity of the pure compounds was determined using the well-established Alamar Blue™ redox-based 96-well microplate assay, in which the screening procedure was modified from. PNT2A cells were seeded into 96-well microplate assay at density of 0.5 × 10^4 cells/well in 100 μL of Dulbecco’s modified Eagle’s medium (DMEM; Invitrogen, Paisley, UK) and incubated at 37 °C, 5% CO2 with a humidified atmosphere for 24 h. […] The microplate plate was incubated at 37 °C, 5% CO2 with a humidified atmosphere for 24 h, then 10 μL of Alamar blue was added. The microplate was further incubated for another 20 h, then the fluorescence was measured using a Wallac Victor 2 microplate reader (Perkin Elmer, Cambridge, UK) (excitation: 530 nm, emission 590 nm). The results were calculated as % of the DMSO control values.

[1] = system: epimastigotes of T. cruzi; set-up: method as in PMID 8788584; conditions: read-out: 50% culture growth inhibition (GI50); cited from earlier work
[2] = system: epimastigotes of T. cruzi; set-up: method as in doi:10.1016/0960-894X(95)00248-R; conditions: cited from earlier work
[3] = system: Giardia lamblia trophozoites; set-up: method as in doi:10.29356/jmcs.v56i2.305; conditions: read-out: IC50 (giardicidal activity); cited from earlier work
T. b. rhodesiense = system: T. b. rhodesiense; set-up: method as in PMID 21438586; conditions: T. b. rhodesiense in vitro bloodstream trypomastigotes; cited from earlier work
[4] = system: bloodstream strain of T. b. brucei; set-up: method as in PMID 17637068; conditions: cited from earlier work
T. cruzi = system: T. cruzi; set-up: method as in earlier work; conditions: cited from earlier work
[5] = T. b. brucei, two independent assays
[6] = Trypanosoma brucei, T. b. brucei, two independent assays
[7] = T. cruzi epimastigotes, compounds with two methoxy groups on the benzene ring
[8] = different strains of T. cruzi epimastigotes, at 13–17 μM of the tested compounds

SMILES: CC(C)=CCC12OC(C(C)(C)O)CC1=C(O)c1ccccc1C2=O (stereo not drawn) [Compound 2, glycosemiquinone]
- MIC (T. b. brucei; [5]): 12.50 µM (≈ 4.11 µg/mL)
- MIC (T. b. brucei; [6]): 12.5 µM (≈ 4.11 µg/mL)
- Cell viability, % of DMSO control (PNT2A cells): 86.1%

SMILES: CC(C)=CCC12OC(C(C)(C)O)CC1C(=O)c1ccccc1C2=O (stereo not drawn) [Compound 5, glycoquinone]
- MIC (T. b. brucei; [5]): 12.50 µM (≈ 4.11 µg/mL)
- MIC (T. b. brucei; [6]): 12.5 µM (≈ 4.11 µg/mL)
- Cell viability, % of DMSO control (PNT2A cells): 80.3%

SMILES: CC1OC2=C(C(=O)c3ccccc3C2=O)C1(C)C (single isomer, unassigned; (-)) [(−)-2,3,3-trimethyl-2-3-dihydronaphtho [2,3-b]furan-4,9-quinone]
- GI50 [1]: 2.1 to 5.2 µM

SMILES: CC[C@H](/C=C/[C@@H](C)[C@H]1CC[C@H]2[C@@H]3CC=C4C[C@@H](O)CC[C@]4(C)[C@H]3CC[C@]12C)C(C)C [Compound 9, stigmasterol]
- anti-trypanosomal activity (in words) (T. b. brucei; T. b. brucei): very low activity
- MIC (T. b. brucei; Trypanosoma brucei): 126 µM (≈ 52.2 µg/mL)
- Cell viability, % of DMSO control (PNT2A cells): 98.7%

SMILES: COc1ccc2c(c1OC)C(=O)c1oc(C(C)=O)cc1C2=O [2-acetyl-7,8-dimethoxynaphtho[2,3-b] furan-4,9-quinone]
- growth inhibition (GI) [2, 7]: 45%

SMILES: COc1ccc2c(c1)C(=O)c1cc(C(C)O)oc1C2=O (stereo not drawn) [2-(1-hydroxyethyl)-6-methoxynaphtho[2,3-b]furan-4,9-quinone]
- growth inhibition (GI) [2, 8]: 100%

SMILES: CC(C)(C)CC(C)(C)c1ccc(OCCO)cc1 [triton X, reference compound]
- Cell viability, % of DMSO control (PNT2A cells): 0.082%

SMILES: COc1ccc2c(c1)C(=O)c1cc(C(C)=O)oc1C2=O [2-acetyl-6-methoxynaphtho[2,3-b]furan4,9-quinone]
- growth inhibition (GI) [2, 8]: 100%

SMILES: COc1ccc2c(c1OC)C(=O)c1occc1C2=O [7,8-dimethoxynaphtho[2,3-b]furan-4,9-quinone]
- growth inhibition (GI) [2, 7]: 25%

SMILES: CC(C)(O)c1cc2c(o1)C(=O)c1ccccc1C2=O [Compound 4, avicequinone C]
- MIC (T. b. brucei; [6]): 3.12 µM (≈ 0.8 µg/mL)
- Cell viability, % of DMSO control (PNT2A cells): 68.6%

SMILES: CC1(C)CC[C@]2(C)CC=C3[C@]4(C)CC[C@H]5C(C)(C)C(=O)CC[C@]5(C)[C@H]4CC[C@@]3(C)[C@@H]2C1 [Compound 6, taraxerone]
- pIC50 [3]: 4.57
- anti-trypanosomal activity (in words) (T. b. brucei; T. b. brucei): inactive
- MIC (T. b. brucei; [6]): 154 µM (≈ 65.5 µg/mL)
- Cell viability, % of DMSO control (PNT2A cells): 88.8%

SMILES: CC1(C)CC[C@]2(C)CC=C3[C@]4(C)CC[C@H]5C(C)(C)[C@@H](O)CC[C@]5(C)[C@H]4CC[C@@]3(C)[C@@H]2C1 [Compound 7, taraxerol]
- pIC50 [3]: 4.42
- pIC50 (T. b. rhodesiense): > 5.00
- anti-trypanosomal activity (in words) (T. b. brucei; T. b. brucei): inactive
- MIC (T. b. brucei; [6]): 145 µM (≈ 62 µg/mL)
- Cell viability, % of DMSO control (PNT2A cells): 92.8%

SMILES: CC[C@H](CC[C@@H](C)[C@H]1CC[C@H]2[C@@H]3CC=C4C[C@@H](O)CC[C@]4(C)[C@H]3CC[C@]12C)C(C)C [Compound 8, β-sitosterol]
- anti-trypanosomal activity (in words) (T. b. brucei; T. b. brucei): inactive
- MIC (T. b. brucei; Trypanosoma brucei): 142 µM (≈ 59 µg/mL)
- Cell viability, % of DMSO control (PNT2A cells): 96.2%

SMILES: COc1c2c(c(OC)c3ccccc13)OC(C(C)(C)O)C2 (stereo not drawn) [Compound 3, avicenol C]
- MIC (T. b. brucei; [6]): 6.25 µM (≈ 1.8 µg/mL)
- Cell viability, % of DMSO control (PNT2A cells): 78.3%

SMILES: Cc1ccc(C(=O)Nc2ccc(S(=O)(=O)O)c3cc(S(=O)(=O)O)cc(S(=O)(=O)O)c23)cc1NC(=O)c1cccc(NC(=O)Nc2cccc(C(=O)Nc3cc(C(=O)Nc4ccc(S(=O)(=O)O)c5cc(S(=O)(=O)O)cc(S(=O)(=O)O)c45)ccc3C)c2)c1 [suramin, reference compound]
- MIC (T. b. brucei; Trypanosoma brucei): 0.11 µM (≈ 0.143 µg/mL)

SMILES: COc1ccc2c(c1OC)C(=O)c1ccoc1C2=O [5,6-dimethoxynaphtho [2,3-b]furan-4,9-quinone]
- growth inhibition (GI) [2, 7]: 45%

SMILES: CC1(C)CC[C@]2(C)CC[C@]3(C)C(=CC[C@@H]4[C@@]5(C)CC[C@H](O)C(C)(C)[C@@H]5CC[C@]43C)[C@@H]2C1 [β-amyrin]
- pIC50 [4]: 3.90

SMILES: CC(C)(O)C1Cc2c(c(O)c3ccccc3c2O)O1 (stereo not drawn) [Compound 1, 2-(2-hydroxypropan-2-yl)-2,3-dihydronaphtho-[2,3-b] furan-4,9-diol]
- MIC (T. b. brucei; [5]): 12.50 µM (≈ 3.25 µg/mL)
- MIC (T. b. brucei; [6]): 12.5 µM (≈ 3.25 µg/mL)
- Cell viability, % of DMSO control (PNT2A cells): 86.1%

SMILES: COc1ccc2c(c1OC)C(=O)c1oc(C(C)O)cc1C2=O (stereo not drawn) [2-(1-hydroxyethyl)-7,8-dimethoxynaphtho[2,3-b]furan-4,9-quinone]
- growth inhibition (GI) [2, 7]: 22%

SMILES: Cc1cccc2c1C(=O)c1c(CO)coc1C2=O [maturone]
- trypanocidal activity (in words) (T. cruzi): potent trypanocidal activity

Source: publication PMC7767399, “Targeted Isolation of Anti-Trypanosomal Naphthofuran-Quinone Compounds from the Mangrove Plant Avicennia lanata” (Marine Drugs, 2020)
